Patent US9949960B2, “Pharmaceutical composition for preventing or treating muscle weakness-related diseases, containing butylpyridinium or derivative thereof” (KOREA RESEARCH INSTITUTE OF BIOSCIENCE AND BIOTECHNOLOGY, priority 2014, dated 2018)

Assays:
[1] = system: C57BL/6 male mice, muscle immobilization model; assay: Grip strength test after tibialis anterior muscle immobilization; assay type: in vivo, mouse; details: compared to control group
Protocol: (§1) As experimental animals, 20 of C57BL/6 male mice aged 6 weeks were used. The experimental animals were assigned to two groups: a control group, to which 10 mice having similar weights were assigned without administration, and an experimental group, to which 10 mice having similar weights were assigned with butylpyridinium chloride administration.
(§2) It was also administered continuously during the muscle immobilization periods described below.
(§3) In this experiment, as a method for inducing muscle regeneration in mice, the tibialis anterior muscle immobilization protocol was used. In this method, the thighs and shins of one leg of a mouse were fixed using a medical staple so that legs were immobilized, and after leaving the immobilized mouse alone for 3 days, the fixed leg was released. The principle used in this method is that when a leg is placed in a cast and the muscle of the leg is immobilized (i.e., not frequently used), the muscle is lost. […]
Grip strength was measured using a grip strength measuring instrument made by the company BIOSEB. The mouse was placed on a wire mesh attached to the instrument panel that can monitor the strength of a force, and the force of holding the wire mesh by the mouse while the tail was gripped downward was measured. […]

[2] = system: C57BL/6 male mice, muscle immobilization model; assay: Rota-rod test after tibialis anterior muscle immobilization; assay type: in vivo, mouse; details: compared to control group
Protocol: as §1, §2
as §3, with “lost. It is a method for inducing muscle regeneration, in which, after the muscle loss due to immobilizing the shin muscle, the muscle is regenerated by releasing the immobilized muscle so that the muscle may move again.” for “lost.”

[3] = system: C2C12 myoblast cell line; assay: Immunocytochemistry of MYH3 expression in differentiating C2C12 cells; assay type: cell-based, mouse; details: 0.2 μM, third day of differentiation; FIG. 2
Protocol: (§4) The DMSO, cetylpyridinium chloride, butylpyridinium chloride, and dodecylpyridinium chloride used in the experiment were all purchased from Sigma-Aldrich.
C2C12 cells on a cover glass coated with 0.1% gelatin were differentiated for 3 days. After washing the cells with 1×PBS, fixing with 3.7% paraformaldehyde at room temperature for 15 minutes, and washing 3 times with 1×PBS, a permeabilization buffer was added, and the cells were reacted at room temperature for 15 minutes. After washing the cells three times with 1×PBS again, the cells were reacted for 30 minutes with PBST (blocking buffer, PBS containing 0.5% Tween 20) containing 1% BSA to deter any unspecific binding of antibodies. The primary antibody against MYH3 (SC-20641, Santa Cruz Biotechnology) was added to the blocking buffer by diluting at a ratio of 1:500 and was reacted at room temperature for 1 hour. After washing the cells three times with 1×PBS, the secondary antibody (Goat anti-Rabbit IgG-HRP), which was diluted in the blocking buffer at a ratio of 1:5000, was added and reacted at room temperature for 1 hour, and the cells were washed three times with 1×PBS. The cover glass was placed on a slide glass, photographs were taken with a fluorescence microscope, and the results were analyzed.

[4] = system: mouse immobilization model; assay: Muscle fiber cross-sectional area (Laminin staining of TA muscle) in mouse immobilization model; details: 1.7 mg/kg (mouse) oral, compared to control group; FIG. 12
Protocol: The separated muscle was cut to a thickness of 5 μM and stained by immunofluorescence using a Laminin antibody. […] By using the Laminin antibody, sections of the skeletal muscle fibers formed in the basement membrane were stained, and the cross-sectional area of the muscle fibers was measured (FIG. 12).

[5] = system: mouse immobilization model; assay: Skeletal muscle mass (muscle weight divided by body weight) in mouse immobilization model; assay type: in vivo; details: oral, concentration-dependent, 7 days after inducing regeneration; FIG. 11
Text: Afterwards, an increase in the skeletal muscle mass due to the drug was confirmed by dividing the weight of the separated muscle by the body weight of the mouse (FIG. 11).

[6] = system: mouse immobilization model; assay: Motor ability by rota-rod and treadmill tests after concentration-dependent oral administration; details: FIG. 10
Protocol: The exercise was applied using a rota-rod device consisting of 6 partitions (with a diameter of 7 cm, at an interval of 15 cm) and a rotatable cylindrical bar (with a height of 60 cm).
For the treadmill used in this test, a self-manufactured device was used. After each mouse was placed in an isolated lane and made to run, the time from the starting point to a point when the mouse was exhausted (i.e., judged to have no will to run) was recorded. […] In this experiment, repeated experiments on the same mouse could not be performed. The mouse was placed on the device and was made to run at a speed of 8 rpm, the speed was accelerated by 2 rpm every 10 minutes up to a speed of 18 rpm, and starting with no inclination, the inclination was increased by 5 degrees every 30 minutes.

[7] = system: C57BL/6 male mice, muscle immobilization model; assay: Treadmill test after tibialis anterior muscle immobilization; assay type: in vivo, mouse; details: compared to control group
Protocol: as §1, §2
as §3, with “lost. It is a method for inducing muscle regeneration, in which, after the muscle loss due to immobilizing the shin muscle, the muscle is regenerated by releasing the immobilized muscle so that the muscle may move again.” for “lost.”

[8] = system: C2C12 myoblast cell line; assay: Western blot of MYH3 protein in differentiating C2C12 cells; assay type: cell-based, mouse; details: 0.2 μM every day, third day of differentiation, vs DMSO control; FIG. 3
Protocol: The cells were harvested on the third day of differentiation and centrifuged at 1200 rpm for 3 minutes. After adding 100 μL of a lysis buffer to the cells, the cells were sonicated and centrifuged at 3000 rpm for 10 minutes to obtain a water-soluble protein, and after adding a 4× sample buffer, the cells were reacted in boiling water for 5 minutes.
10 μg of the protein was loaded on a 12% SDS-PAGE gel and developed, and then was transferred onto a nitrocellulose membrane. The nitrocellulose membrane was blocked in 5% skim milk for 1 hour at room temperature and washed 5 times with TTBS (0.03% Tween 20, Tris 2.42 g, NaCl 9 g, pH 7.4, and 1 L) for 5 minutes each. The primary antibody was diluted in TTBS containing 5% skim milk at a ratio of 1:500 and was added to the nitrocellulose membrane, and after reacting at room temperature for 2 hours, the nitrocellulose membrane was again washed 5 times with TTBS for 5 minutes each. The secondary antibody was diluted at a ratio of 1:5000 again in TTBS containing 5% skim milk and added, was reacted at room temperature for 2 hours, was washed with TTBS 5 times for 5 minutes each, and ECL (Enhanced Chemiluminescent solution, Pierce) was added. Thereafter, the membrane was exposed to X-ray film, and the amount of the protein was measured.

[9] = system: C2C12 myoblast cell line; assay: Myotube formation of C2C12 cells observed under phase contrast microscopy; assay type: cell-based, mouse; details: 0.2 μM, 3 days differentiation, compared to DMSO control; FIG. 1
Protocol: C2C12 is a cell line of myoblasts obtained from a C3H strain live mouse, and it is widely used in the differentiation studies of myoblasts.
The above-described C2C12 cells were cultured in each of general media for cell growth and media for differentiation. In the normal cell growth media (GM), DMEM supplemented with 10% fetal bovine serum was used, and in the differentiation media (DM), DMEM containing 2% horse blood serum was used.
as §4

SMILES	expression of MYH3 (immunocytochemistry) [3]	amount of MYH3 protein (Western blot) [8]	formation of myotubes (differentiation promoting effect) [9]	also measured
CCCCCCCCCCCCCCCC[n+]1ccccc1 [cetylpyridinium chloride]	very high	significantly increased	more myotubes were formed	range of decrease in grip strength after muscle immobilization ([1]; 50 mg/kg oral for 2 weeks, FIG. 7): reduced; motor ability to maintain the sense of balance (rota-rod) ([2]; 50 mg/kg oral for 2 weeks, FIG. 8): improved; cross-sectional area of the muscle (TA) [4]: increased; skeletal muscle mass of the EDL muscle [5]: increased; skeletal muscle mass of the gastrocnemius muscle [5]: increased; motor ability (rota-rod and treadmill tests) [6]: improved; endurance (treadmill) ([7]; 50 mg/kg oral for 2 weeks, FIG. 9): improved
CCCCCCCCCCCC[n+]1ccccc1 [dodecylpyridinium chloride]	very high	significantly increased	more myotubes were formed	
CCCCCCCCCCCCCCCC[n+]1ccccc1 [cetylpyridinium bromide]		increased		
CC[n+]1ccccc1.[Cl-] [ethylpyridinium chloride]		did not increase		
CCCC[n+]1ccccc1 [butylpyridinium chloride]	very high	significantly increased	more myotubes were formed	range of decrease in grip strength after muscle immobilization ([1]; 15 mg/kg oral, 3 days immobilization, tested 7 days after release, FIG. 4): reduced; motor ability to maintain the sense of balance (rota-rod) ([2]; 15 mg/kg oral, after muscle immobilization, FIG. 5): improved; endurance (treadmill) ([7]; 15 mg/kg oral, after muscle immobilization, FIG. 6): improved
